Measured values published in US9598421B2, “Imidazopyridazine compounds” (Pfizer Inc., priority 2014, dated 2017).
Where two headings read alike, the source gives them in different places.

Columns and labels:
Type in all cases: biochemical
[1] = molecular target: Human PDE4A (Homo sapiens (Human), UniProt P27815); assay: PDE4A Scintillation Proximity Assay (SPA), inhibition of enzyme activity; conditions: read-out: Human PDE4A FL
Experimental: (§1) The PDE4A3, PDE4B1, PDE4C1 and PDE4D3 assays use the Scintillation Proximity Assay (SPA) technology to measure the inhibition of human recombinant PDE4A1, PDE4B3, PDE4C1, and PDE4D3 enzyme activity by compounds in vitro. The PDE4A1, PDE4B3, PDE4C1, and PDE4D3 assays are run in parallel using identical parameters, except for the concentration of enzyme (80 pM PDE4A3, 40 pM PDE4B3, 40 pM PDE4C1 and 10 pM PDE4D). […] Reactions are incubated for 30 min at 25° C. The addition of 20 uL of 8 mg/ml yitrium silicate SPA beads (Perkin Elmer) stops the reaction. The plates are sealed (TopSeal, Perkin Elmer) and the beads are allowed to settle for 8 hrs, after which they are read on the Trilux Microbeta overnight.

[2] = molecular target: Human PDE4D (Homo sapiens (Human), UniProt Q08499); assay: PDE4D Scintillation Proximity Assay (SPA), inhibition of enzyme activity; conditions: read-out: Human PDE4D FL
Human PDE4D, sequence (Q08499 186-808): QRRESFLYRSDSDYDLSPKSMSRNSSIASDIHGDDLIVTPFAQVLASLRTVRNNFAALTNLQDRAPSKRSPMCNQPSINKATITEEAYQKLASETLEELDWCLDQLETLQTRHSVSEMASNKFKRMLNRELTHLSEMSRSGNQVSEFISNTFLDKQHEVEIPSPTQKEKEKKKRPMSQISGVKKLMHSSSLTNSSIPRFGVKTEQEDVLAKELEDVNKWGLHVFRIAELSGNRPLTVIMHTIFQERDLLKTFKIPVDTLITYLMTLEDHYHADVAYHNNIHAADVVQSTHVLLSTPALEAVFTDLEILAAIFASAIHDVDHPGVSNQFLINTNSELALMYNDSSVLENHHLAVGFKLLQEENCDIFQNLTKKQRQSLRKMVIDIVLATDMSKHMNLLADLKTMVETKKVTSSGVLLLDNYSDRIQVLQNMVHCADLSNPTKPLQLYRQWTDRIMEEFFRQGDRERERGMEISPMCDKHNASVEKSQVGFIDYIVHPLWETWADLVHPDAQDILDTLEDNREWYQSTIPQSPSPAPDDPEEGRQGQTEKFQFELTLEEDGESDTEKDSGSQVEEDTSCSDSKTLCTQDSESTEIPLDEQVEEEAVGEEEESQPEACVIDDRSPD

[3] = molecular target: Human PDE4C (Homo sapiens (Human), UniProt Q08493); assay: PDE4C Scintillation Proximity Assay (SPA), inhibition of enzyme activity; conditions: read-out: Human PDE4C FL
Human PDE4C, sequence (Q08493 2-712): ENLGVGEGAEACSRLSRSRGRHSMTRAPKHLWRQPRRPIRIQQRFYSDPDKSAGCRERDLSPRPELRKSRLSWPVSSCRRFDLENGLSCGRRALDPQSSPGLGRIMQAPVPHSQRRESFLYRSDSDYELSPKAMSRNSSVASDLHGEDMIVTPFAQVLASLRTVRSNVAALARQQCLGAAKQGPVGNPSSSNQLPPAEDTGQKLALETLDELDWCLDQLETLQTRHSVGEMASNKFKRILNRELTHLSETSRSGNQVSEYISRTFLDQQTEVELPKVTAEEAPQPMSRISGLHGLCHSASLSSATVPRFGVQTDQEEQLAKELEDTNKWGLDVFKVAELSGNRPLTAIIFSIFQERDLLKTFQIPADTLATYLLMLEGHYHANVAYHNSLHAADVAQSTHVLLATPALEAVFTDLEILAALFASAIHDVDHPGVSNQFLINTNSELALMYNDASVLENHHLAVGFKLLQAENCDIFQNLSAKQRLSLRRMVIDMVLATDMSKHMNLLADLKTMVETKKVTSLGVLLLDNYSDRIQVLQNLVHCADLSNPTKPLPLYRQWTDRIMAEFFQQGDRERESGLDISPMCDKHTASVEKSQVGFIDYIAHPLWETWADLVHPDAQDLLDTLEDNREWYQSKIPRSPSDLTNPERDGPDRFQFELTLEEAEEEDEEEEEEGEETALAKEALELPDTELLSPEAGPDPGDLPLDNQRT
Experimental: as §1

[4] = human recombinant enzyme, 1 μM cAMP substrate, 30 min at 25° C., geometric mean of 2-9 determinations unless otherwise indicated

Human PDE4A, sequence (P27815 other isoform, or with tags, fused parts or gaps): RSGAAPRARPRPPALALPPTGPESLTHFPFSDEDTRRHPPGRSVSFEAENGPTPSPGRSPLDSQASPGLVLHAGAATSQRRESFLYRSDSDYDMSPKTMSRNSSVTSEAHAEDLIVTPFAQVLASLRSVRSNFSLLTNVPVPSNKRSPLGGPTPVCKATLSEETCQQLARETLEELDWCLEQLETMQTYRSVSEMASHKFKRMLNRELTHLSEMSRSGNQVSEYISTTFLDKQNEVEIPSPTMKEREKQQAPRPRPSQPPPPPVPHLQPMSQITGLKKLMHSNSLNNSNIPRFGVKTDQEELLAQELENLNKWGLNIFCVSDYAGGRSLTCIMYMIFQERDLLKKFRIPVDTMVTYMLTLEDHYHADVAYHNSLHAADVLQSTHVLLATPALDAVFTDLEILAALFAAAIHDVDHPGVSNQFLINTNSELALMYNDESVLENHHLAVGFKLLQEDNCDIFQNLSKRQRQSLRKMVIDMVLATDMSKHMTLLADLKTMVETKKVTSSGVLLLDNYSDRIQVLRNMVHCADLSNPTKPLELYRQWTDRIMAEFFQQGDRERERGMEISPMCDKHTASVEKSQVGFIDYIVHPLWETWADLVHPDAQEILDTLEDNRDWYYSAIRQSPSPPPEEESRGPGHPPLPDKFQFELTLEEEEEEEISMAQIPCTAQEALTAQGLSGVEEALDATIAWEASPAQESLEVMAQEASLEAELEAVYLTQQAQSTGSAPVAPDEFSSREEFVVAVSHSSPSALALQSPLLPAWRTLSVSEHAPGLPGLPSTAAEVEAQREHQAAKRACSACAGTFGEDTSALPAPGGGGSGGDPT

Compound: O=C(NC1CC1)c1nc2cccnn2c1-c1cccc(Cl)c1 [Example 36, 3-(3-chlorophenyl)-N-cyclopropylimidazo[1,2-b]pyridazine-2-carboxamide]
- IC50 [1, 4]: 23.7 nM
- IC50 [2, 4]: 254 nM
- IC50 [3, 4]: 21 nM

Compound: O=C(c1nc2cccnn2c1-c1ccc(Cl)c(Cl)c1)N1CCC1 [Example 83, azetidin-1-yl[3-(3,4-dichlorophenyl)imidazo[1,2-b]pyridazin-2-yl]methanone]
- IC50 [1, 4]: 6.21 nM
- IC50 [2, 4]: 495 nM
- IC50 [3, 4]: 40 nM

Compound: N#Cc1ccc(-c2c(C(=O)NC3CC3)nc3cccnn23)cn1 [Example 5, 3-(6-Cyanopyridin-3-yl)-N-cyclopropylimidazo[1,2-b]pyridazine-2-carboxamide]
- IC50 [1, 4]: 40.2 nM
- IC50 [2]: > 26600 nM
- IC50 [3, 4]: 208 nM

Compound: O=C(NC12CC(C1)C2)c1nc2cccnn2c1-c1ccc(Cl)cc1 [Example 37, N-(bicyclo[1.1.1]pent-1-yl)-3-(4-chlorophenyl)imidazo[1,2-b]pyridazine-2-carboxamide]
- IC50 [1, 4]: 127 nM
- IC50 [2, 4]: 2570 nM
- IC50 [3, 4]: 161 nM

Compound: O=C(Nc1ncccn1)c1nc2cccnn2c1-c1ccc(Cl)cc1 [Example 101, 3-(4-chlorophenyl)-N-(pyrimidin-2-yl)imidazo[1,2-b]pyridazine-2-carboxamide]
- IC50 [1, 4]: 268 nM
- IC50 [2, 4]: > 25900 nM
- IC50 [3, 4]: 1180 nM

Compound: O=C(c1nc2cccnn2c1-c1ccc(Cl)c(F)c1)N1CCC1 [Example 13, azetidin-1-yl[3-(4-chloro-3-fluorophenyl)imidazo[1,2-b]pyridazin-2-yl]methanone]
- IC50 [1, 4]: 5.13 nM
- IC50 [2, 4]: 669 nM
- IC50 [3, 4]: 17.3 nM

Compound: CN(C(=O)c1nc2cccnn2c1-c1ccc(Cl)cc1)C1CC1 [Example 32, 3-(4-chlorophenyl)-N-cyclopropyl-N-methylimidazo[1,2-b]pyridazine-2-carboxamide]
- IC50 [1, 4]: 1030 nM
- IC50 [2, 4]: > 30000 nM
- IC50 [3, 4]: 469 nM

Compound: Cc1cc(-c2c(C(=O)N3CCC3)nc3cccnn23)c(F)cc1C#N [Example 18, 4-[2-(azetidin-1-ylcarbonyl)imidazo[1,2-b]pyridazin-3-yl]-5-fluoro-2-methylbenzonitrile]
- IC50 [1, 4]: 55 nM
- IC50 [2, 4]: 8200 nM
- IC50 [3, 4]: 147 nM

Compound: Cc1cc(-c2c(C(=O)N3CCC3)nc3cccnn23)cc(C)c1F [Example 53, azetidin-1-yl[3-(4-fluoro-3,5-dimethylphenyl)imidazo[1,2-b]pyridazin-2-yl]methanone]
- IC50 [1, 4]: 17.8 nM
- IC50 [2, 4]: 3110 nM
- IC50 [3, 4]: 153 nM

Compound: Cc1cc(Cl)ccc1-c1c(C(=O)NC2CC2)nc2cccnn12 [Example 12, 3-(4-chloro-2-methylphenyl)-N-cyclopropylimidazo[1,2-b]pyridazine-2-carboxamide]
- IC50 [1, 4]: 14.4 nM
- IC50 [2, 4]: 5220 nM
- IC50 [3, 4]: 89.6 nM

Compound: O=C(NC1CC1)c1nc2cccnn2c1-c1ccnc(OC(F)F)c1 [Example 75, N-cyclopropyl-3-[2-(difluoromethoxy)pyridin-4-yl]imidazo[1,2-b]pyridazine-2-carboxamide]
- IC50 [1, 4]: 10.5 nM
- IC50 [2, 4]: 104 nM
- IC50 [3, 4]: 24.9 nM

Compound: O=C(NC1CC1)c1nc2cccnn2c1-c1ccc2ccnn2c1 [Example 22, N-cyclopropyl-3-(pyrazolo[1,5-a]pyridin-6-yl)imidazo[1,2-b]pyridazine-2-carboxamide]
- IC50 [1, 4]: 27.6 nM
- IC50 [2, 4]: 1890 nM
- IC50 [3, 4]: 71.2 nM

Compound: N#Cc1ccc(-c2c(C(=O)N3CCC3)nc3cccnn23)cc1F [Example 23, 4-[2-(azetidin-1-ylcarbonyl)imidazo[1,2-b]pyridazin-3-yl]-2-fluorobenzonitrile]
- IC50 [1, 4]: 15.1 nM
- IC50 [2, 4]: 4130 nM
- IC50 [3, 4]: 45.8 nM

Compound: Cc1cc2ncnn2cc1-c1c(C(=O)NC2CC2)nc2cccnn12 [Example 89, N-cyclopropyl-3-(7-methyl[1,2,4]triazolo[1,5-a]pyridin-6-yl)imidazo[1,2-b]pyridazine-2-carboxamide]
- IC50 [1, 4]: 829 nM
- IC50 [2, 4]: > 17200 nM
- IC50 [3, 4]: 3760 nM

Compound: CNC(=O)c1nc2cccnn2c1-c1ccc(Cl)c(F)c1 [Example 94, 3-(4-chloro-3-fluorophenyl)-N-methylimidazo[1,2-b]pyridazine-2-carboxamide]
- IC50 [1, 4]: 24.9 nM
- IC50 [2, 4]: 5380 nM
- IC50 [3, 4]: 65 nM

Compound: CCNC(=O)c1nc2cccnn2c1-c1ccc(Cl)cc1 [Example 85, 3-(4-chlorophenyl)-N-ethylimidazo[1,2-b]pyridazine-2-carboxamide]
- IC50 [1, 4]: 25.6 nM
- IC50 [2, 4]: 6700 nM
- IC50 [3, 4]: 47.2 nM

Compound: O=C(c1nc2cccnn2c1-c1ccc(Cl)cc1)N1CC(F)C1 [Example 60, [3-(4-chlorophenyl)imidazo[1,2-b]pyridazin-2-yl](3-fluoroazetidin-1-yl)methanone]
- IC50 [1, 4]: 269 nM
- IC50 [2, 4]: > 4930 nM
- IC50 [3, 4]: 287 nM

Compound: O=C(c1nc2cccnn2c1-c1ccnc(OC(F)F)c1)N1CCC1 [Example 76, azetidin-1-yl{3-[2-(difluoromethoxy)pyridin-4-yl]imidazo[1,2-b]pyridazin-2-yl}methanone]
- IC50 [1, 4]: 7.09 nM
- IC50 [2, 4]: 94.5 nM
- IC50 [3, 4]: 22.2 nM

Compound: O=C(NC1CC1)c1nc2cccnn2c1-c1cc(F)c(Cl)c(F)c1 [Example 104, 3-(4-chloro-3,5-difluorophenyl)-N-cyclopropylimidazo[1,2-b]pyridazine-2-carboxamide]
- IC50 [1, 4]: < 0.488 nM
- IC50 [2, 4]: 145 nM
- IC50 [3, 4]: 4.69 nM

Compound: O=C(c1nc2cccnn2c1-c1ccc2ncoc2c1)N1CCC1 [Example 77, azetidin-1-yl[3-(1,3-benzoxazol-6-yl)imidazo[1,2-b]pyridazin-2-yl]methanone]
- IC50 [1, 4]: 46.1 nM
- IC50 [2, 4]: > 16600 nM
- IC50 [3, 4]: 186 nM

Compound: O=C(N[C@@H]1C[C@@H]1F)c1nc2cccnn2c1-c1ccc(Cl)cc1F [Example 68, 3-(4-chloro-2-fluorophenyl)-N-[(1R,2S)-2-fluorocyclopropyl]imidazo[1,2-b]pyridazine-2-carboxamide]
- IC50 [1, 4]: 10.6 nM
- IC50 [2, 4]: 2620 nM
- IC50 [3, 4]: 25.1 nM

Compound: COC1CN(C(=O)c2nc3cccnn3c2-c2ccc(Cl)cc2)C1 [Example 31, [3-(4-chlorophenyl)imidazo[1,2-b]pyridazin-2-yl](3-methoxyazetidin-1-yl)methanone]
- IC50 [1, 4]: 2820 nM
- IC50 [2, 4]: < 26200 nM
- IC50 [3, 4]: 5810 nM

Compound: CCCNC(=O)c1nc2cccnn2c1-c1ccc(Cl)cc1 [Example 26, 3-(4-chlorophenyl)-N-propylimidazo[1,2-b]pyridazine-2-carboxamide]
- IC50 [1, 4]: 85.5 nM
- IC50 [2, 4]: 3800 nM
- IC50 [3, 4]: 111 nM

Compound: CCNC(=O)c1nc2cccnn2c1-c1cc(F)c(C#N)cc1C [Example 98, 3-(4-cyano-5-fluoro-2-methylphenyl)-N-ethylimidazo[1,2-b]pyridazine-2-carboxamide]
- IC50 [1, 4]: 26.6 nM
- IC50 [2, 4]: 3320 nM
- IC50 [3, 4]: 107 nM

Compound: O=C(NC1CC1)c1nc2cccnn2c1-c1cncc(Cl)c1 [Example 14, 3-(5-chloropyridin-3-yl)-N-cyclopropylimidazo[1,2-b]pyridazine-2-carboxamide]
- IC50 [1, 4]: 73.7 nM
- IC50 [2, 4]: > 8010 nM
- IC50 [3, 4]: 108 nM

Compound: CCNC(=O)c1nc2cccnn2c1-c1cc(F)c(Cl)cc1F [Example 96, 3-(4-chloro-2,5-difluorophenyl)-N-ethylimidazo[1,2-b]pyridazine-2-carboxamide]
- IC50 [1, 4]: 4.58 nM
- IC50 [2, 4]: 908 nM
- IC50 [3, 4]: 29.2 nM

Compound: N#Cc1ccc(-c2c(C(=O)NC3CC3)nc3cccnn23)c(F)c1 [Example 79, 3-(4-cyano-2-fluorophenyl)-N-cyclopropylimidazo[1,2-b]pyridazine-2-carboxamide]
- IC50 [1, 4]: 48.8 nM
- IC50 [2, 4]: > 25400 nM
- IC50 [3, 4]: 297 nM

Compound: O=C(c1nc2cccnn2c1-c1cc(F)c(Cl)c(F)c1)N1CCC1 [Example 47, azetidin-1-yl[3-(4-chloro-3,5-difluorophenyl)imidazo[1,2-b]pyridazin-2-yl]methanone]
- IC50 [1, 4]: 7.37 nM
- IC50 [2, 4]: 334 nM
- IC50 [3, 4]: 23.9 nM

Compound: CCCNC(=O)c1nc2cccnn2c1-c1cc(Cl)cc(Cl)c1 [Example 28, 3-(3,5-dichlorophenyl)-N-propylimidazo[1,2-b]pyridazine-2-carboxamide]
- IC50 [1, 4]: 15.6 nM
- IC50 [2, 4]: 393 nM
- IC50 [3, 4]: 49 nM

Compound: O=C(c1nc2cccnn2c1-c1ccc(Cl)cc1)N1CC(F)(F)C1 [Example 61, [3-(4-chlorophenyl)imidazo[1,2-b]pyridazin-2-yl](3,3-difluoroazetidin-1-yl)methanone]
- IC50 [1, 4]: 144 nM
- IC50 [2, 4]: 1930 nM
- IC50 [3, 4]: 126 nM

Compound: Cn1cc(NC(=O)c2nc3cccnn3c2-c2ccc(Cl)c(F)c2)cn1 [Example 7, 3-(4-Chloro-3-fluorophenyl)-N-(1-methyl-1H-pyrazol-4-yl)imidazo[1,2-b]pyridazine-2-carboxamide]
- IC50 [1]: 2.77 nM
- IC50 [2]: 34.5 nM
- IC50 [3]: 2.35 nM

Compound: O=C(c1nc2cccnn2c1-c1ccc(Cl)cc1F)N1CCC1 [Example 52, azetidin-1-yl[3-(4-chloro-2-fluorophenyl)imidazo[1,2-b]pyridazin-2-yl]methanone]
- IC50 [1, 4]: 24.3 nM
- IC50 [2, 4]: 5510 nM
- IC50 [3, 4]: 113 nM

Compound: O=C(NC1CC1)c1nc2cccnn2c1-c1cc(F)cc(Cl)c1 [Example 35, 3-(3-chloro-5-fluorophenyl)-N-cyclopropylimidazo[1,2-b]pyridazine-2-carboxamide]
- IC50 [1, 4]: 35.7 nM
- IC50 [2, 4]: 1220 nM
- IC50 [3, 4]: 37 nM

Compound: O=C(c1nc2cccnn2c1-c1ccc(Cl)cc1)N1CCC1 [Example 1, Azetidin-1-yl[3-(4-chlorophenyl)imidazo[1,2-b]pyridazin-2-yl]methanone]
- IC50 [2]: 10300 nM
- IC50 [3]: 130 nM

Compound: O=C(c1nc2cccnn2c1-c1ccc2ccnn2c1)N1CCC1 [Example 8, Azetidin-1-yl[3-(pyrazolo[1,5-a]pyridin-6-yl)imidazo[1,2-b]pyridazin-2-yl]methanone]
- IC50 [1, 4]: 20 nM
- IC50 [2, 4]: 5440 nM
